Measured values reported in article PMC7852567, “A first-in-human phase 1 and pharmacological study of TAS-119, a novel selective Aurora A kinase inhibitor in patients with advanced solid tumours” (British Journal of Cancer, 2020).
Like-named read-outs stand apart in the source and are kept apart here.

Experiments:
ROS [1] = conditions: cited from earlier work
[2] = Plasma and urine pharmacokinetics in patients (LC-MS/MS, non-compartmental); assay type: in vivo, human; conditions: for mean ratio of AUC0 − last (accumulation): RP2D level DL 2.1, 200 mg BID; for Tmax: po, all dose levels; for CL renal: urine, urine 0 to 12 h, cycle 1 day 1
Method: Blood samples for PK analysis were collected in cycle 1, on days 1, 4 and 18 pre-dose and at 0.5, 1, 2, 3, 5, 8, and 12 h post-dose. Urine samples were collected on day 1 of cycle 1 before dosing and from 0 to 12 h after dosing. Plasma and urine concentrations of TAS-119 were determined by validated liquid chromatography–tandem mass spectrometry method. PK parameters included the peak plasma concentration (Cmax), time to reach maximum concentration in plasma (Tmax), area under the plasma concentration–time curve up to the last observable concentration (AUC0 − last) and up to infinity (AUC0 − inf), terminal phase elimination half-life (T1/2), clearance (CL/F), apparent volume of distribution (Vd/F), renal clearance (CLr) and oral clearance (CL/F).
The influence of polymorphisms of SLCO1B1 encoding the drug influx transporter OATP1B1 was examined in a blood sample obtained pre-dose on day 1 of cycle 1 for all patients during the dose escalation part. MYC amplification and β-catenin mutation were assessed in archival formalin-fixed paraffin-embedded tumour samples obtained after enrolment of the patient into the study.
Descriptive statistics were used to summarise safety data (AEs, vital signs and clinical laboratory results) overall response based on RECIST, PK and PD data. PK parameters were calculated by standard non-compartmental methods using Phoenix^TMWinNonlin® (Ver 6.3 or later, Certara L.P.). Dose proportionality of TAS-119 was evaluated with a power model and a linear regression model using logarithmic values of PK parameters such as Cmax and AUCs, as well as a one-way analysis of variance (ANOVA) using dose-normalised parameters such as Cmax, AUCs, CL/F, and apparent volume of distribution (Vd/F). Student’s t test was used to test statistical significance of the PD data and calculate the mean ratio for AUC0 − last at RP2D or MTD. Influence of SLCO1B1 genotypes on PK parameters was tested by ANOVA.

advanced solid tumours = experiment: Antitumour activity by RECIST v1.1; assay type: in vivo, human
Method: (§1) Adverse events (AEs) at baseline and during the study were recorded and graded based on the Common Terminology Criteria for Adverse Events v4.03. Tumour measurements were done at the end of every second cycle or as per the Institutional standard of care in case of clinical indications. Response were assessed using Response Evaluation Criteria in Solid Tumours (RECIST) v1.1.[19]
Planned enrolment in the dose escalation part included 18–30 evaluable patients, with 3–6 DLT evaluable patients in each DL. To further assess the feasibility as well as preliminarily efficacy of the RP2D, approximately 40 patients were planned to be enrolled into the expansion part (approximately 10–15 patients in each of the expansion cohorts). An additional 20 patients were pre-planned to be enrolled in an extension of the expansion part provided that either an overall response rate (ORR) of ≥20% for each specific indication or ≥10% for patients with MYC-amplified or β-catenin-mutated tumours had been observed.

[3] = tested on: cancer cells with MYC oncogene amplifications and/or mutations in the Wnt/β-catenin pathway; parameters: method as in PMID 22222631, doi:10.15761/IMM.1000162; conditions: cited from earlier work
TRK-C = tested on: TRK-C; parameters: method as in doi:10.1016/S0959-8049(14)70524-6; conditions: pre-clinical data; cited from earlier work
[4] = tested on: phosphorylated histone H3 (pHH3); experiment: pHH3 immunohistochemistry in paired skin biopsies and paired tumour samples; assay type: in vivo, human
Method: (§2) Blood and tissue samples were taken for PD on-target effects during mitosis of TAS-119. First, the rate of phosphorylated histone H3 (pHH3) immunohistochemistry-positive cells to total cells were measured in paired skin biopsies and paired tumour samples collected prior to first TAS-119 administration as well as after receiving TAS-119 on day 4 of cycle 1. In case of target engagement, an increase in pHH3 is expected because of cells that will stagnate in mitosis. Second, pre- and post-dose mRNA expression of genes involved in mitosis, BORA, SGOL2, KIF20A and DEPDC-1, was analysed in tissue samples by reverse transcriptase-polymerase chain reaction.

AurC = tested on: AurC; parameters: method as in doi:10.1016/S0959-8049(14)70524-6; conditions: pre-clinical data; cited from earlier work
RET = tested on: RET; parameters: method as in doi:10.1016/S0959-8049(14)70524-6; conditions: pre-clinical data; cited from earlier work
[5] = tested on: BORA, SGOL2, KIF20A and DEPDC-1; experiment: mRNA expression of mitosis genes by RT-PCR in tissue samples; assay type: in vivo, human; conditions: 32 patients from the dose escalation part
Method: as §2

AurB = tested on: AurB; parameters: method as in doi:10.1016/S0959-8049(14)70524-6; conditions: pre-clinical data; cited from earlier work
AurA = tested on: AurA; parameters: method as in doi:10.1016/S0959-8049(14)70524-6; conditions: pre-clinical data; cited from earlier work
[6] = cited from earlier work
TRK-A = tested on: TRK-A; parameters: method as in doi:10.1016/S0959-8049(14)70524-6; conditions: pre-clinical data; cited from earlier work
ROS [7] = tested on: ROS; parameters: method as in doi:10.1016/S0959-8049(14)70524-6; conditions: pre-clinical data; cited from earlier work
TRK-B = tested on: TRK-B; parameters: method as in doi:10.1016/S0959-8049(14)70524-6; conditions: pre-clinical data; cited from earlier work
[8] = tested on: patients with advanced, refractory, solid tumours; experiment: First-in-human phase 1 study: safety, tolerability, DLT, MTD, RP2D; assay type: in vivo; conditions: for DLT events in words: cycle 1
Method: This multicentre study (six centres) consisted of a dose escalation part with a 3 + 3 design to explore safety and tolerability. Patients were enrolled into predefined dose levels (DLs; 70, 150, 200, 250, 300 mg BID) utilising a 4 days on/3 days off schedule 3 out of 4 weeks (intermittent schedule). The rationale for this intermittent schedule was based on pre-clinical data showing a more favourable toxicity profile, compared to continuous dosing regimens while maintaining antitumour activity. In addition to the 4 days on/3 days off, 3 out of 4 weeks schedule, a continuous dosing (200 mg BID) schedule with the same weekly schedule (4 days on/3 days off) administered 4 out of 4 weeks, was explored in the escalation phase. A minimum of 3 patients were to be treated at each DL, and at least 6 patients were planned to be enrolled at the MTD level. The MTD was defined as the highest DL at which <33% of patients experienced a dose-limiting toxicity (DLT) during cycle 1. The RP2D was defined as a dose below or equal to the MTD based on the evaluation of all available information (tolerability in cycles after cycle 1, PK, PD or other safety information). The RP2D was used in the expansion part of this study. Based on the safety profile assessed in the dose escalation part of this study, either the intermittent (3 out of 4 weeks) or the continuous dosing schedule (4 out of 4 weeks) could be selected.
TAS-119 was administered orally BID as tablets of 25 and 100 mg strength, on an empty stomach. Based on rodent toxicology data, 70 mg BID was determined as the starting dose after conversion from the severely toxic dose in 10% of exposed animals (STD10) (63 mg/kg BID) to one tenth of the human equivalent dose. […] Non-haematological DLTs consisted of grade ≥3 toxicity (excluding nausea/vomiting lasting <48 h and controlled by anti-emetic therapy, diarrhoea lasting <48 h and responsive to anti-diarrhoea medication or hypersensitivity reactions), whereas haematological DLT consisted of any grade 4 neutropenia lasting >7 days, any febrile neutropenia (documented absolute neutrophil count <1000/mm^3) lasting >1 h, any grade 4 thrombocytopenia or grade 3 thrombocytopenia associated with bleeding and requiring blood transfusion.
Vital sign assessment, blood cell count, serum biochemistry, coagulation parameters, urinalysis, a 12-lead electrocardiogram and, if applicable, a pregnancy test were performed at baseline. In addition, after the amendment of the protocol (Amendment 2: 31-March-2015) an ophthalmologic assessment, including visual acuity, pupil shape and pupillary reflexes, extraocular motility (eye movement) and alignment, tonometry, visual field, external examination, slit-lamp examination, and fundoscopy, was performed and repeated in all patients on days 8 and 22 during cycle 1 and on day 1 of every subsequent cycle, beginning with cycle 3. This was a consequence of ocular toxicity observed in 2 out of 26 patients until that moment.
as §1

[9] = in vivo; cited from earlier work

Compound: COc1cc(Nc2ncc3c(n2)-c2ccc(Cl)cc2C(c2c(F)cccc2OC)=NC3)ccc1C(=O)O [Alisertib]
- mean inhibition of ROS (ROS [1]): 80%

Compound: Cc1cc(Nc2nc(CC3(C(=O)O)CCN(C(=O)c4cccc(Cl)c4Cl)CC3)ccc2F)n[nH]1 [TAS-119]
- increase of plasma exposure with dose ([2]; 70–300 mg BID, power model, linear model and one-way ANOVA): dose-proportional
- CL/F and Vd/F among SLCO1B1 polymorphism-caused phenotypes (normal/intermediate/low) ([2]; ANOVA): no statistical differences
- mean ratio of AUC0 − last (accumulation) ([2]; day 4): 1.3
- mean ratio of AUC0 − last (accumulation) ([2]; day 18): 1.2
- ratio of AUC0 − last (accumulation) ([2]; continuous 200 mg BID schedule (DL 2.1), day 18): 1.1
- accumulation ratios throughout all DLs ([2]; human, in vivo): low
- half-life ([2]; human, plasma, oral, blood concentrations, across dose levels): 2.8 to 6 h
- Tmax ([2]; human, plasma, plasma, oral, read-out: Tmax range): 0.5 to 2 h
- Tmax ([2]; human, plasma, plasma, oral, read-out: median Tmax): 1.2 h
- CL renal ([2]; human, oral, read-out: CLr (renal clearance), median (converted)): 4.17 mL/min
- CL renal ([2]; human, oral, read-out: CLr (renal clearance), range): 2.5 to 5.17 mL/min
- oral clearance (CL/F), median ([2]; plasma): 9.79 L/h
- oral clearance (CL/F), range ([2]; plasma): 2.72 to 13.94 L/h
- patients with stable disease as best response (advanced solid tumours; DL 2 (150 mg BID)): 6 patients
- patients with stable disease as best response (advanced solid tumours; DL 2.1 (200 mg BID continuous schedule)): 4 patients
- patients with stable disease as best response (advanced solid tumours; DL 2.1 (200 mg BID)): 4 patients
- complete or partial response (advanced solid tumours; dose escalation part): no complete response (CR) or partial response (PR)
- stable disease as best response (advanced solid tumours; dose escalation part, fourteen patients): 41%
- patients with unconfirmed PR (advanced solid tumours; epithelial mesothelioma, DL 2 (150 mg BID), at cycle 4): One
- target ORR of 20% (or ≥10% for MYC amplification or β-catenin mutation) (advanced solid tumours; expansion part): not met
- complete or partial response (advanced solid tumours; expansion part, 200 mg BID): no confirmed CR or PR
- patients with stable disease (advanced solid tumours; expansion part, MYC-amp/B-cat mutation-positive tumours): 5 patients
- patients with stable disease (advanced solid tumours; expansion part, SCLC): 5 patients
- patients with stable disease (advanced solid tumours; expansion part, basket cohort (1 mesothelioma, 1 colorectal cancer)): 2 patients
- patients with stable disease (advanced solid tumours; expansion part, breast cancer): 1 patients
- growth inhibitory effects on cancer cells with MYC amplifications and/or Wnt/β-catenin pathway mutations [3]: more potent growth inhibitory effects
- IC50 (TRK-C): 1.47 ± 0.04 nM
- mean pHH3-positive rate in skin samples after administration ([4]; 55 paired samples, pre-dose versus day 4 of cycle 1, p value <0.0001): increased
- mean pHH3 rate in paired tumour samples ([4]; eight paired tumour samples): did not significantly change
- IC50 (AurC): 36.5 nM
- IC50 (RET): 25.8 ± 1.5 nM
- mRNA expression level of mitosis genes after dosing [5]: no significant increase
- IC50 (AurB): 95 nM
- IC50 (AurA): 1.04 nM
- microscopic findings in pre-clinical high-dose toxicity study ([6]; animals, considerable individual variation): degeneration and regeneration or hyperplasia of epithelial tissue
- vomiting and liquid faeces, cyclic administration versus daily administration ([6]; cyclic administration 4 days on/3 days off, pre-clinical): less frequent vomiting and liquid faeces
- microscopic findings in pre-clinical high-dose toxicity study, eyes ([6]; only in dogs): involvement of the epithelium of the eyes
- IC50 (TRK-A): 1.46 ± 0.16 nM
- IC50 (ROS [7]): 29.3 ± 0.8 nM
- IC50 (TRK-B): 1.53 ± 0.12 nM
- maximum tolerated dose (MTD) ([8]; 4 days on/3 days off, 3 out of 4 weeks): 250 mg BID
- DLT events in words ([8]; DL 2.2, 250 mg BID): one patient with grade 2 AEs of fatigue, corneal epithelial microcysts and nausea
- DLT events in words ([8]; DL 3, 300 mg BID, 2 patients): SAE of corneal microcysts, grade 2 and 3
- AE with the outcome of death ([8]; escalation part, one patient at DL 2 (150 mg BID), disease progression, deemed not study treatment related): 3%
- AEs with the outcome of death ([8]; expansion part): No AEs with the outcome of death
- AE: Alkaline phosphatase increase ([8]; human, in vivo): 7 (17.5) n, %
- AE: Amylase increase ([8]; human, in vivo): 4 (10.0) n, %
- AE: Gamma-glutamyltransferase increase ([8]; human, in vivo): 7 (17.5) n, %
- AE: Headache ([8]; human, in vivo): 5 (12.5) n, %
- AE: Hyperglycaemia ([8]; human, in vivo): 5 (12.5) n, %
- AE: Hypoalbuminaemia ([8]; human, in vivo): 5 (12.5) n, %
- AE: Hypokalaemia ([8]; human, in vivo): 4 (10.0) n, %
- AE: Hypotension ([8]; human, in vivo): 5 (14.7) n, %
- AE: Pruritis ([8]; human, in vivo): 4 (10.0) n, %
- AE: Upper respiratory tract infection ([8]; human, in vivo): 5 (12.5) n, %
- AE: Urinary tract infection ([8]; human, in vivo): 6 (15.0) n, %
- AE: Weight loss ([8]; human, in vivo): 4 (11.8) n, %
- AEs leading to discontinuation of study drug ([8]; human, in vivo): 12%
- AEs leading to discontinuation of the study drug ([8]; human, in vivo): 8%
- dose dependence of ocular toxicity ([8]; human, in vivo): dose dependent and only seen at doses of 200 mg BID and above
- grade ≥3 diarrhoea ([8]; human, in vivo): 5/74
- grade ≥3 increased lipase without symptoms of pancreatitis ([8]; human, in vivo): 9/74
- ocular side effects, in total ([8]; human, in vivo): 9 patients
- ocular toxicity throughout the various DLs ([8]; human, in vivo): 38 % of the patients
- recommended phase 2 dose (RP2D) ([8]; human, in vivo): 200 mg BID
- treatment-related AEs leading to discontinuation of study drug ([8]; human, in vivo): 9%
- patients with DLT during cycle 1 ([8]; in vivo): Five
- patients with an ocular DLT ([8]; in vivo): four
- treatment-related AEs leading to discontinuation of the study drug ([8]; in vivo): none
- severely toxic dose in 10% of exposed animals (STD10) [9]: 63 mg/kg BID
